Paper PMC4286194 (Biochemical Journal, 2015)

Tests used:
Assay type in all cases: cell-based, mouse
[1] = system: Bone-marrow-derived macrophages; experiment: IL-10 secretion (BIOPLEX) in LPS-stimulated macrophages; settings: 10 μM; LPS-stimulated
Method: The concentration of TNFα, IL-6, IL-10 and IL-12p40 in cell-free culture supernatants were measured using the Bio-Plex Pro Assay system (Bio-Rad).

[2] = system: Bone-marrow-derived macrophages; experiment: TLR signalling immunoblots (MAPKs, MSK1/2, CREB, IKKs, TBK1); settings: 3 μM bosutinib, 0.3 μM dasatinib or 0.5 μM HG-9-91-01
Method: RAW264.7 cells were cultured in DMEM containing 10% FBS, 2 mM glutamine and penicillin and streptomycin. […] Cells were treated for 1 h with or without inhibitors and then stimulated for up to 24 h with either 1 μg/ml Pam3CSK4 or 100 ng/ml LPS.
Cells were extracted in lysis buffer [50 mM Tris/HCl, pH 7.4, 1 mM EDTA, 1 mM EGTA, 50 mM NaF, 5 mM sodium pyrophosphate, 10 mM sodium β-glycerol 1-phosphate, 1 mM DTT, 1 mM sodium orthovanadate, 0.27 M sucrose, 1% (v/v) Triton X-100, 1 μg/ml aprotinin, 1 μg/ml leupeptin and 1 mM PMSF]. Cell extracts were clarified by centrifugation and protein concentrations were determined using the Bradford assay. To immunoprecipitate endogenous CRTC3, 1 mg of cell extract was incubated with 5 μg of anti-CRTC3 [13] covalently cross-linked on to Protein G–Sepharose. Immune complexes were washed three times with lysis buffer, eluted in 1% SDS and separated by SDS/PAGE. To detect proteins in cell lysates, 20 μg of protein extract was separated by SDS/PAGE. After transfer to PVDF membranes, proteins were detected by immunoblotting and visualized by treating the blots with ECL (GE Healthcare) followed by autoradiography.

[3] = system: Bone-marrow-derived macrophages; experiment: CREB-dependent gene transcription (qPCR); settings: macrophages
Method: mRNA was extracted from cells using the MicroElute Total RNA kit following the manufacturers’ instructions (Omega Bio-Tek). cDNA was generated from 0.5 μg of total RNA using the iScript cDNA synthesis kit and quantified by quantitative real-time PCR (qPCR) using the SsoFast EvaGreen Supermix on a CFX384 real-time system (Bio-Rad Laboratories). The relative expression of each gene was calculated from CT values using the Pfaffl method and was normalized against the mRNA levels of housekeeping genes including 18S RNA and GAPDH. Results are reported relative to untreated control cells, which were set to 1.

Question: For `C#Cc1cccc(Nc2ncnc3cc(OCCOC)c(OCCOC)cc23)c1` [Erlotinib, erlotinib], which IL-10 production [1] is on record?
Answer: failed to elevate IL-10 production

Question: How did the IL-10 production [1] turn out when `COc1cc2ncnc(Nc3ccc(F)c(Cl)c3)c2cc1OCCCN1CCOCC1` [Gefitinib, gefitinib] was run?
Answer: failed to elevate IL-10 production

Question: How did the “TLR-stimulated phosphorylation of ERK1/2, JNK1/2, p38α/β MAPKs, MSK1/2, IKKα/β, TBK1 and their direct substrates” value [2] turn out when `COc1ccc(N(C(=O)Nc2c(C)cccc2C)c2cc(Nc3ccc(N4CCN(C)CC4)cc3)ncn2)c(OC)c1` [HG-9-91-01] was run?
Answer: occurred normally

Question: What does the source list for `Cc1ccc(NC(=O)c2ccc(CN3CCN(C)CC3)cc2)cc1Nc1nccc(-c2cccnc2)n1` [Imatinib, imatinib]?
Answer: CREB-dependent gene transcription and IL-10 production [3]: fail to induce CREB-dependent gene transcription and to elevate IL-10 production; IL-10 production [1]: failed to elevate IL-10 production

Question: `CS(=O)(=O)CCNCc1ccc(-c2ccc3ncnc(Nc4ccc(OCc5cccc(F)c5)c(Cl)c4)c3c2)o1` [Lapatinib, lapatinib] was tested. Which IL-10 production [1] did it give?
Answer: failed to elevate IL-10 production

Question: With `CCN(CC)CCNC(=O)c1c(C)[nH]c(/C=C2\C(=O)Nc3ccc(F)cc32)c1C` [Sunitinib, sunitinib] as the compound, how does the IL-10 production [1] read?
Answer: failed to elevate IL-10 production

Question: Which IL-10 production [1] does the source give for `COc1cc2/c(=N/c3ccc(Br)cc3F)nc[nH]c2cc1OCC1CCN(C)CC1` [Vandetinib, vandetinib] here?
Answer: failed to elevate IL-10 production
